Laboratory results: patent EP0643964A2 (priority 1993, dated 1995)
Several values for one entry are separate records, joined by “and”; a condition that tells them apart may be missing. Equal values may be shown once.

Legend:
[1] = tested on: herpes simplex; experiment: Evolution of recidivant periorificial herpes simplex infection in volunteers; type: in vivo, human
Experimental: Patients were divided into 3 groups: one of the groups (n=4) received acyclovir by oral route and topical applications of the same drug. […] Experiments began with the appearance of the next episode of herpes, just in the moment when vesicles appeared.
All these patients were controlled monthly during the following 4 months. During this time, group A patients presented episodes with a pattern similar to that they had before the experiment was performed. […] The remaining two presented an episode of herpes 2.8 and 3.3 months later.

[2] = tested on: M3 tumor; experiment: M3 transplanted mice, tumor area (lidocaine and epidoxorrubicine); type: in vivo
[3] = tested on: Giardia lamblia; experiment: Patients with malabsorption syndrome (MAS) caused by Giardia lamblia; type: in vivo, human; conditions: Volunteer # 1, 7 days of treatment; recurrence one month later
Excerpt: Volunteer # 1: Type II MAS with positive isolation of Giardia lamblia in duodenal washings and confirmation of the disease by histopathology. […] One month later, patient 1 presented symptoms and signs of recurrence of the disease, with positive isolation of parasites in feces.
Volunteer # 2: with diffuse abdominal pain, loss of body weight and steatorrhea.

[4] = target: pseudocholines-terase (Homo sapiens, UniProt P06276); conditions: cited from earlier work
Chain of pseudocholines-terase (P06276 29-602, species assumed): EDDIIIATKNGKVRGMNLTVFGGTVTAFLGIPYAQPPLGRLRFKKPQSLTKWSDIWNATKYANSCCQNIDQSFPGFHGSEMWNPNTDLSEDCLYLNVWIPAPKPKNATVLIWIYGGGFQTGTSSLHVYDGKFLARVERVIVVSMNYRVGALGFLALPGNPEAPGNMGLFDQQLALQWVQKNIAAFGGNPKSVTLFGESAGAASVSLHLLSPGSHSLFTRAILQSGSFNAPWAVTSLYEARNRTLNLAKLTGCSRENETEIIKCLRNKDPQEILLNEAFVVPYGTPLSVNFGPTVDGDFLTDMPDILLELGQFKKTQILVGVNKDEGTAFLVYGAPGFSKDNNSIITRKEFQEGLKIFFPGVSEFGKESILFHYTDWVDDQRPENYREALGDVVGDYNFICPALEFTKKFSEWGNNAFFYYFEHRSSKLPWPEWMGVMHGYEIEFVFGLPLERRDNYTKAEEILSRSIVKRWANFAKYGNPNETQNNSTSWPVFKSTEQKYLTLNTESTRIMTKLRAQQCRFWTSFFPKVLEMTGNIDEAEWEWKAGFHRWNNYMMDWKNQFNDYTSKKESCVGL

[5] = global anesthesia by intravenous route; one death in more than 6200 patients; cited from earlier work
[6] = in vivo; cited from earlier work
[7] = herpes simplex episode, ACV oral+topical, lidocaine 5 ml 2% i.v. twice a day 2 days

Nc1nc2c(ncn2COCCO)c(=O)[nH]1 [ACV, acyclovir]
Duration of lesions [1, 7]: 7 days | Duration of symptoms [1, 7]: 4 days | FIRST EPISODE AFTER TREATMENT ([1]; individual patients, followed monthly for 4 months): 31 d. and 29 d d. and 33 d d. and 40 d.

COc1cccc2c1C(=O)c1c(O)c3c(c(O)c1C2=O)C[C@@](O)(C(=O)CO)C[C@@H]3O[C@H]1C[C@H](N)[C@@H](O)[C@H](C)O1 [epidoxorrubicine]
Area (tumor) ([2]; day 7 p-t (day 0), lidocaine 0.1 ml 0.05% every 7 days, epidoxorrubicine 0.125 ml 0.2% every 7 days, combination: lidocaine 2 days after epidoxorrubicine): 0.46 | Area (tumor) ([2]; day 10 p-t, regimens as Table 5 footnotes, saline control 0.92): 0.90 | I/Ø: Percentual increment over tumor in day 0 (day 7 p-t) ([2]; day 10 p-t, saline control 103.47): 95.65% | Area (tumor) ([2]; day 12 p-t, regimens as Table 5 footnotes, saline control 1.56): 1.56 | I/Ø: Percentual increment over tumor in day 0 (day 7 p-t) ([2]; day 12 p-t, saline control 245.61): 238.04% | Area (tumor) ([2]; day 14 p-t, regimens as Table 5 footnotes, saline control 2.06): 2.36 | I/Ø: Percentual increment over tumor in day 0 (day 7 p-t) ([2]; day 14 p-t, saline control 357.57): 413.04% | I/Ø: Percentual increment over tumor in day 0 (day 7 p-t) ([2]; day 16 p-t, saline control 516.74): 316.30% | Area (tumor) ([2]; day 18 p-t, regimens as Table 5 footnotes, saline control 3.61): 2.41 | I/Ø: Percentual increment over tumor in day 0 (day 7 p-t) ([2]; day 18 p-t, saline control 701.39): 422.83% | Area (tumor) ([2]; day 21 p-t, regimens as Table 5 footnotes, saline control 4.61): 3.39 | I/Ø: Percentual increment over tumor in day 0 (day 7 p-t) ([2]; day 21 p-t, saline control 923.86): 637.68% | Area (tumor) ([2]; day 23 p-t, regimens as Table 5 footnotes, saline control 5.49): 3.57 | I/Ø: Percentual increment over tumor in day 0 (day 7 p-t) ([2]; day 23 p-t, saline control 1119.69): 676.81% | Area (tumor) ([2]; day 25 p-t, regimens as Table 5 footnotes, saline control 6.24): 4.16 | I/Ø: Percentual increment over tumor in day 0 (day 7 p-t) ([2]; day 25 p-t, saline control 1286.33): 804.35% | Area (tumor) ([2]; mouse, in vivo): 1.92

Cc1ncc([N+](=O)[O-])n1CCO [metronidazole]
Clinical evolution [3]: good evolution

CCN(CC)CCOC(=O)c1ccc(N)cc1 [procaine]
cleavage rate ([4]; hydrolysis in blood plasma and liver): 20 mg. per minute | deaths [5]: less than 0.01% | half life [6]: about 0.7 minutes

CCCCNc1ccc(C(=O)OCCN(C)C)cc1 [tetracaine]
velocity of cleavage relative to procaine [4]: about 5 times more slowly than procaine
